Here are results for twelve compounds from ChEMBL document CHEMBL1156214, “Identification of GNE-477, a potent and efficacious dual PI3K/mTOR inhibitor” (Bioorg Med Chem Lett, 2010).

pEC50, pIC50, pKi: −log10 of the molar value. In brackets after ≈: the same amount, converted by molar mass. Activity calls are given as the source filed them. No cut-off for these calls is given here. Where only a bound is given, the exact number is not on record here.

Data set [1] can be described thus: Antiproliferative activity against human MCF7.1 cells after 3 days by celltiter-glo luminescence assay. In kind it is functional, cell-based. The settings on record: MCF7.1, 72 h.
A short description of data set [2]: Thermodynamic solubility at pH 6.5. The note with it: buffer. Format: physicochemical.
The target in data set [3] is Serine/threonine-protein kinase mTOR (Homo sapiens, UniProt P42345). Kind of data set: Inhibition of human recombinant mTOR assessed as reduction in GFP-4EBP1 phosphorylation after 30 mins by FRET assay.
Data set [4] has as its target Phosphatidylinositol 4,5-bisphosphate 3-kinase catalytic subunit alpha isoform (Homo sapiens, UniProt P42336).
Description: Inhibition of PI3Kalpha assessed as reduction in 3,4,5-inositoltriphosphate accumulation after 30 mins by fluorescence polarization assay
Data set [5] in a line: Hepatic clearance in rat liver microsomes. In kind it is ADME, Microsome.
Data set [6] can be described thus: Plasma protein binding in rat at 1 mg/kg, iv or 5 mg/kg, po. Format: ADME, organism-based. The settings on record: read-out: PPB (converted).
The nature of data set [7]: Clearance in rat at 1 mg/kg, iv or 5 mg/kg, po. Format: ADME, organism-based. The note with it: in vivo.
The nature of data set [8]: Oral bioavailability in rat at 5 mg/kg. Format: ADME, organism-based. The note with it: in vivo.
The test system of data set [9] is Rattus norvegicus. Kind of data set: Unbound clearance in rat at 1 mg/kg, iv or 5 mg/kg, po. The note with it: in vivo. Format: ADME, organism-based.
The nature of data set [10]: Clearance in nu/nu mouse at 1 mg/kg, iv or 5 mg/kg, po. Format: ADME, organism-based. The settings on record: in vivo.
Data set [11] in a line: Clearance in Beagle dog at 1 mg/kg, iv or 2 mg/kg, po. The note with it: in vivo. Format: ADME, organism-based, Canis lupus familiaris.
Data set [12] relates to Mus musculus. Kind of data set: Toxicity in nu/nu mouse assessed as body weight loss at 1 to 20 mg/kg, po QD measured after 14 days. In kind it is organism-based. The settings on record: in vivo, 336 h. The arrangement: dose 1-20 mg/kg, route oral.
For data set [13], the system named is PC-3. Kind of data set: Antiproliferative activity against human PC3 cells after 3 days by celltiter-glo luminescence assay. The settings on record: PC-3, 72 h. In kind it is functional, cell-based.
For data set [14], the system named is PC-3. Kind of data set: Antitumor activity against human PC3 cells xenografted in nu/nu mouse assessed as tumor incidence at 1 mg/kg, po QD measured after 14 days. Format: functional, organism-based. The arrangement: dose 1 mg/kg.
The test system of data set [15] is PC-3. Kind of data set: Antitumor activity against human PC3 cells xenografted in nu/nu mouse assessed as tumor growth inhibition at 5 mg/kg, po QD measured after 14 days relative to control. In kind it is functional. The arrangement: scale not given: the % may be the effect or the level left.
In data set [16] the test system is PC-3. Kind of data set: Antitumor activity against human PC3 cells xenografted in nu/nu mouse assessed as tumor growth inhibition at 10 mg/kg, po QD measured after 14 days relative to control. Format: functional. The arrangement: scale not given: the % may be the effect or the level left.
Data set [17] is described as follows: Oral bioavailability in nu/nu mouse at 5 mg/kg. In kind it is ADME, organism-based. The settings on record: in vivo.
The test system of data set [18] is PC-3. Kind of data set: Antitumor activity against human PC3 cells xenografted in nu/nu mouse assessed as tumor incidence at 10 mg/kg, po QD measured after 14 days. In kind it is functional, organism-based. The arrangement: dose 10 mg/kg.
A short description of data set [19]: Oral bioavailability in Beagle dog at 2 mg/kg. Format: ADME, organism-based, Canis lupus familiaris. The settings on record: in vivo.
For data set [20], the system named is PC-3. Kind of data set: Antitumor activity against human PC3 cells xenografted in nu/nu mouse assessed as tumor growth inhibition at 1 mg/kg, po QD measured after 14 days relative to control. Format: functional. The arrangement: scale not given: the % may be the effect or the level left.
Data set [21] relates to PC-3. Kind of data set: Antitumor activity against human PC3 cells xenografted in nu/nu mouse assessed as tumor growth inhibition at 20 mg/kg, po QD measured after 14 days relative to control. Format: functional. The arrangement: scale not given: the % may be the effect or the level left.

Phosphatidylinositol 4,5-bisphosphate 3-kinase catalytic subunit alpha isoform, sequence (P42336 whole entry, canonical isoform): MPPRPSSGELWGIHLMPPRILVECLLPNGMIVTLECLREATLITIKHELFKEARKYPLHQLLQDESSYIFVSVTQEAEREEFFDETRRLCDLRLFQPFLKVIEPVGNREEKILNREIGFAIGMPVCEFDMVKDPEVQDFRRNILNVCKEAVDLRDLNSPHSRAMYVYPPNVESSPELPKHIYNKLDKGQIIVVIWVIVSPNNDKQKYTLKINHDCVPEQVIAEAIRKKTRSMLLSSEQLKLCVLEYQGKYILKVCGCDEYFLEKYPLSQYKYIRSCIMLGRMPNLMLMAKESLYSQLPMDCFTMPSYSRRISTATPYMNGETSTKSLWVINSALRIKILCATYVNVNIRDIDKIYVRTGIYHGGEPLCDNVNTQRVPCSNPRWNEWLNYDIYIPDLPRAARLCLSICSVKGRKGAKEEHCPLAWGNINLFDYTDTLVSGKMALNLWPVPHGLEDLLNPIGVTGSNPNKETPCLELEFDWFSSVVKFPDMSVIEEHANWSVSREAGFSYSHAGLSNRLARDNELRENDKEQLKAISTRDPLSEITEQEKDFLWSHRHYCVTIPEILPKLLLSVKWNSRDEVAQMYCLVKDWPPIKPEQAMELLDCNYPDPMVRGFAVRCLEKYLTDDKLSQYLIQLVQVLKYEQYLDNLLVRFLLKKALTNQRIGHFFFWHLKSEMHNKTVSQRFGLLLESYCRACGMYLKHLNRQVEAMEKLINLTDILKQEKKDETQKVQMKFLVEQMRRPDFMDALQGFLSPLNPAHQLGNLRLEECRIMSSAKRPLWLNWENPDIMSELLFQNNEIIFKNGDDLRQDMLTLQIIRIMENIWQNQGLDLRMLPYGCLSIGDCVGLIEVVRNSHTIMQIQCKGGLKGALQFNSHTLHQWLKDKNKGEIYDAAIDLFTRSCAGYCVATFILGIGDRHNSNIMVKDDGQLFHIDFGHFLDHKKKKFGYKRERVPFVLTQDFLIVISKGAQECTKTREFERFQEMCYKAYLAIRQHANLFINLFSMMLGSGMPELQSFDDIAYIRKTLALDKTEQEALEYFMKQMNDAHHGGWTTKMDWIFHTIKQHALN

`Nc1ncc(-c2nc(N3CCOCC3)c3sccc3n2)cn1` gave a pEC50 in data set [1] of 6.37. Further, the thermodynamic solubility in data set [2] is 170 µg/mL (≈ 541 µM). In addition, in data set [3], the pKi was 7.38. Besides, in [4], the pIC50 is 8.30.

In data set [1], `CS(=O)(=O)N1CCN(Cc2cc3nc(-c4cccc5[nH]ncc45)nc(N4CCOCC4)c3s2)CC1` [PICTILISIB] showed a pEC50 of 6.14.

Turning to `Cc1c(-c2cccc(S(C)(=O)=O)c2)sc2c(N3CCOCC3)nc(-c3cnc(N)nc3)nc12`, the CLhep predicted in data set [5] is 12 mL/min/kg. Further, the fraction unbound in data set [6] was 0.03. Also, in data set [7], the clearance turned out to be 13 mL/min/kg. In [8], this compound came in with a bioavailability of 4%. Moreover, the pEC50 in data set [1] was 7.17. The compound further gave a thermodynamic solubility in data set [2] of 3 µg/mL (≈ 6.22 µM). In addition, the pKi in [3] was 8.40. Besides, the Unbound clearance in data set [9] is 433 mL/min/kg. This compound showed a pIC50 in data set [4] above 9.00.

In the case of `CC(=O)N(C)Cc1sc2c(N3CCOCC3)nc(-c3cnc(N)nc3)nc2c1C`, in data set [5], the CLhep predicted is 20 mL/min/kg. Moreover, in data set [6], the fraction unbound was 0.49. This compound displayed a clearance in data set [7] of 21 mL/min/kg. Further, in data set [1], the pEC50 is 6.79. Also, in data set [3], the pKi is 7.52. Also, the Unbound clearance in data set [9] was found to be 43 mL/min/kg. In data set [4], this compound had a pIC50 of 8.52.

For `Cc1c(-c2cccc(C(=O)N3CCN(C)CC3)c2)sc2c(N3CCOCC3)nc(-c3cnc(N)nc3)nc12`, the CLhep predicted in [5] is 38 mL/min/kg. This compound also came in with a clearance in [7] of 15 mL/min/kg. The compound further showed a pEC50 in data set [1] of 7.19. Also, the pKi in data set [3] was 8.40. The same compound had a pIC50 in data set [4] of 8.70.

Consider `CN(Cc1cc2nc(-c3cnc(N)nc3)nc(N3CCOCC3)c2s1)S(C)(=O)=O`, for which the pEC50 in [1] is 6.77. Besides, the thermodynamic solubility in data set [2] was determined as 15 µg/mL (≈ 34.4 µM). The pKi in data set [3] was 8.00. The pIC50 in data set [4] was 9.00.

Take `CS(=O)(=O)c1cccc(-c2cc3nc(-c4cnc(N)nc4)nc(N4CCOCC4)c3s2)c1`: in data set [5], the CLhep predicted is 7 mL/min/kg. Moreover, the fraction unbound in [6] was 0.07. The same compound registered a clearance in data set [7] of 56 mL/min/kg. This compound also showed a bioavailability in [8] of 3%. In [1], this compound gave a pEC50 of 7.40. Moreover, in data set [2], the solubility (thermodynamic) was 1 µg/mL (≈ 2.13 µM). Further, in data set [3], the pKi was 8.30. This compound came in with an Unbound clearance in data set [9] of 800 mL/min/kg. In [4], the pIC50 is above 9.00.

Consider `CN1CCN(C(=O)c2cccc(-c3cc4nc(-c5cnc(N)nc5)nc(N5CCOCC5)c4s3)c2)CC1`, for which, in [5], the CLhep predicted is 20 mL/min/kg. In [7], the clearance was 52 mL/min/kg. Besides, the pEC50 in data set [1] is 7.11. Besides, the pKi in data set [3] was 8.00. In data set [4], this compound showed a pIC50 of 9.00.

As to `Cc1c(CN2CCN(S(C)(=O)=O)CC2)sc2c(N3CCOCC3)nc(-c3cnc(N)nc3)nc12`, the clearance amounted to 15 mL/min/kg in data set [10], 5 mL/min/kg in data set [11] and 13 mL/min/kg in [7]. In addition, the Activity in data set [12] was below 10%; in data set [15] it was 43%; in data set [16] it was 60%; in [20], 33%; in data set [21] it was 86%. In addition, in data set [5], the CLhep predicted is 15 mL/min/kg. Also, the fraction unbound in [6] is 0.25. Besides, the pEC50 in [13] was 6.76; in data set [1], 6.84. For the same compound, the outcome in data set [14] and in [18] was inactive. Also, the bioavailability was 98% in [17], 52% in data set [8] and 90% in data set [19]. In addition, in [3], the pKi is 7.68. Moreover, in [9], the Unbound clearance stood at 52 mL/min/kg.

As for `CC(C)(N)c1cc2nc(-c3cnc(N)nc3)nc(N3CCOCC3)c2s1`, the pEC50 in data set [1] was 6.54. In data set [2], this compound displayed a solubility (thermodynamic) of 1100 µg/mL (≈ 2960 µM). The pKi in [3] was 7.23. In data set [4], this compound gave a pIC50 of 8.15.

For `CC(=O)N(C)Cc1cc2nc(-c3cnc(N)nc3)nc(N3CCOCC3)c2s1`, in data set [5], the CLhep predicted is 2 mL/min/kg. The fraction unbound in data set [6] is 0.53. This compound had a clearance in [7] of 50 mL/min/kg. Besides, the pEC50 in data set [1] is 6.72. In [2], this compound returned a solubility (thermodynamic) of 770 µg/mL (≈ 1930 µM). For the same compound, the pKi in data set [3] was 7.30. The compound also registered an Unbound clearance in data set [9] of 94 mL/min/kg. The same compound showed a pIC50 in data set [4] of 8.30.

On to `CS(=O)(=O)N1CCN(Cc2cc3nc(-c4cnc(N)nc4)nc(N4CCOCC4)c3s2)CC1`, for which, in [10], the clearance was found to be 49 mL/min/kg. The CLhep predicted in [5] was 16 mL/min/kg. Moreover, the fraction unbound in data set [6] was 0.48. The bioavailability in data set [17] was 81%; in [19] it was 35%. This compound had a pEC50 in data set [1] of 6.89. This compound also gave a thermodynamic solubility in data set [2] of 62 µg/mL (≈ 126 µM). The pKi in data set [3] was 7.54. This compound also displayed an Unbound clearance in data set [9] of 50 mL/min/kg.
